Data published in doi:10.64898/2025.12.08.692997v2 (biorxiv, 2025).
Structures can show the parent of a compound that is named as a salt. Where two headings read alike, the source gives them in different places. Blank lines part the entries; values can stand above or below the molecule they belong to.

Assays:
[1] = target: T1, human EphB2-His ectodomain - human EphrinB2-Fc ectodomain (EphB2-EphrinB2 tetramer) (Homo sapiens, UniProt P29323+P52799); assay: biochemical
Target sequence in this assay (P52799 28-229): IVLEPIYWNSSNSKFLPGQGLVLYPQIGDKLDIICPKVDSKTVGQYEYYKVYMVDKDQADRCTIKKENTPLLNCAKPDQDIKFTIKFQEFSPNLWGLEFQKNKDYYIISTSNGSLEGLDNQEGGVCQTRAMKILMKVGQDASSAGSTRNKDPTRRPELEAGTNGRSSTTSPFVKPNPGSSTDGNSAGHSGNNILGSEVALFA
Target sequence in this assay (P29323 19-543): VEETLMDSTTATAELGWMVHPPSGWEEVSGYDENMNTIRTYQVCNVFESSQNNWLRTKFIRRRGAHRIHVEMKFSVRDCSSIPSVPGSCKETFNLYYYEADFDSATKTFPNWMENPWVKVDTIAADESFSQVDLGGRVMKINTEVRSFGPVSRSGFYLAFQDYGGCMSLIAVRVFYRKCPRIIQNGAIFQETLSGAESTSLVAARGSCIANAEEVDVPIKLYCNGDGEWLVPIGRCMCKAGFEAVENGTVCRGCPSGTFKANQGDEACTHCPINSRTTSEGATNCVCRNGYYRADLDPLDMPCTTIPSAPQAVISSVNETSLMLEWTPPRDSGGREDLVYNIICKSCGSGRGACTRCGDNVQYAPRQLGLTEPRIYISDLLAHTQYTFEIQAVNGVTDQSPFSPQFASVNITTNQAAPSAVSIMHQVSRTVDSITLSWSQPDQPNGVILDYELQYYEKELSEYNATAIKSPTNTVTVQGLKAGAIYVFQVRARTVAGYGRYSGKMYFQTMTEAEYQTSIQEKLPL

[2] = target: EphrinB2 of mouse pancreatic stellate cells stimulated with mouse EphB2-Fc-His (Mus musculus, UniProt P52800+P54763); assay: % pEphrinB2 by IP and immunoblot; format: cell-based
Chain of EphrinB2 of mouse pancreatic stellate cells stimulated with mouse EphB2-Fc-His (P52800 29-336): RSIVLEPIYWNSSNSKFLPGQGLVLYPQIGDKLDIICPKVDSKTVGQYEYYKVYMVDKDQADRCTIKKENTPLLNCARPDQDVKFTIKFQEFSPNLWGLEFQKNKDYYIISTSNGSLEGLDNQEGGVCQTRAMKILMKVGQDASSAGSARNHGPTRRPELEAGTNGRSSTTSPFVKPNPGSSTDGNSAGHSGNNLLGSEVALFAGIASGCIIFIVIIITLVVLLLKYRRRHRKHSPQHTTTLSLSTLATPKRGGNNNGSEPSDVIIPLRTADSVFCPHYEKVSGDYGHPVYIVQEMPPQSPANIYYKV
Chain of EphrinB2 of mouse pancreatic stellate cells stimulated with mouse EphB2-Fc-His (P54763 19-540): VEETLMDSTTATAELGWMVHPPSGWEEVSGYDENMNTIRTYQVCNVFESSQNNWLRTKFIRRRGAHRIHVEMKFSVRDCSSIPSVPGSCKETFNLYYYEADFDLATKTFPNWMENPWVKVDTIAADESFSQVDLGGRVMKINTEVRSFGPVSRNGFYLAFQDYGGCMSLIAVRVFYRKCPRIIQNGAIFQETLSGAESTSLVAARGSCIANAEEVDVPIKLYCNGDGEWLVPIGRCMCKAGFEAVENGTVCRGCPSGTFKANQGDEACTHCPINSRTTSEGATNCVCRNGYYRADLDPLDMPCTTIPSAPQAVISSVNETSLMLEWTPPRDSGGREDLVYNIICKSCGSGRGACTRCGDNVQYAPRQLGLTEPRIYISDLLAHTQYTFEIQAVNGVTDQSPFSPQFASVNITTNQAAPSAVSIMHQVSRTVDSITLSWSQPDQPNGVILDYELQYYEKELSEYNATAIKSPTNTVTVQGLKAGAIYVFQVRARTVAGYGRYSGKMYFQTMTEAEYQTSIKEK

EphB1-EphrinB2 = EphB1-EphrinB2 (Homo sapiens, UniProt P52799+P54762); assay: biolayer interferometry, AUC; format: binding; settings: read-out: % inhibition at 3.2 μM
[3] = target: T1, human EphB2-His ectodomain - human EphrinB2-Fc ectodomain (EphB2-EphrinB2 tetramer); assay: biolayer interferometry, AUC; format: binding; settings: read-out: % inhibition at 3.2 μM
Target sequence in this assay (P29323 19-543): as the sequence (P29323 19-543) above
Target sequence in this assay (P52799 28-229): as the sequence (P52799 28-229) above

[4] = target: human EphB4-His ectodomain - human EphrinB2-Fc ectodomain (EphB4-EphrinB2) (Homo sapiens, UniProt P52799+P54760); assay: biolayer interferometry, AUC; format: binding; settings: read-out: % inhibition at 3.2 μM
[5] = target: T1, human EphB2-His ectodomain - human EphrinB2-Fc ectodomain (EphB2-EphrinB2 tetramer); assay: biochemical; settings: EphrinB2-EphB2 IC50 (Absolute, µM)
Target sequence in this assay (P52799 28-229): as above
Target sequence in this assay (P29323 19-543): as the sequence (P29323 19-543) above

[6] = target: EphrinB2-EphB1 (immobilized human EphrinB2, 25 nM soluble human EphB1) (Homo sapiens, UniProt P52799+P54762); assay: biochemical; settings: read-out: % Inhibited (AUC) Association
Chain of EphrinB2-EphB1 (immobilized human EphrinB2, 25 nM soluble human EphB1) (P52799 whole entry, the tested form may be a part): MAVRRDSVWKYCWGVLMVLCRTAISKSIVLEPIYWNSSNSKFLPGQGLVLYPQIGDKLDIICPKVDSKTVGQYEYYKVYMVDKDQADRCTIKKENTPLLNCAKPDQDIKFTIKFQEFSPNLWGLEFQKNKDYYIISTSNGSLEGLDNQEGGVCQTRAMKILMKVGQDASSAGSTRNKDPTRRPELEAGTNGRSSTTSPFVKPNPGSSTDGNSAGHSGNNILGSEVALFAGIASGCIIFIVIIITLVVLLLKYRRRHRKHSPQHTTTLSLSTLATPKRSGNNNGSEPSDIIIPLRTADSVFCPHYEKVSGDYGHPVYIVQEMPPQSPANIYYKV
Chain of EphrinB2-EphB1 (immobilized human EphrinB2, 25 nM soluble human EphB1) (P54762 whole entry, the tested form may be a part): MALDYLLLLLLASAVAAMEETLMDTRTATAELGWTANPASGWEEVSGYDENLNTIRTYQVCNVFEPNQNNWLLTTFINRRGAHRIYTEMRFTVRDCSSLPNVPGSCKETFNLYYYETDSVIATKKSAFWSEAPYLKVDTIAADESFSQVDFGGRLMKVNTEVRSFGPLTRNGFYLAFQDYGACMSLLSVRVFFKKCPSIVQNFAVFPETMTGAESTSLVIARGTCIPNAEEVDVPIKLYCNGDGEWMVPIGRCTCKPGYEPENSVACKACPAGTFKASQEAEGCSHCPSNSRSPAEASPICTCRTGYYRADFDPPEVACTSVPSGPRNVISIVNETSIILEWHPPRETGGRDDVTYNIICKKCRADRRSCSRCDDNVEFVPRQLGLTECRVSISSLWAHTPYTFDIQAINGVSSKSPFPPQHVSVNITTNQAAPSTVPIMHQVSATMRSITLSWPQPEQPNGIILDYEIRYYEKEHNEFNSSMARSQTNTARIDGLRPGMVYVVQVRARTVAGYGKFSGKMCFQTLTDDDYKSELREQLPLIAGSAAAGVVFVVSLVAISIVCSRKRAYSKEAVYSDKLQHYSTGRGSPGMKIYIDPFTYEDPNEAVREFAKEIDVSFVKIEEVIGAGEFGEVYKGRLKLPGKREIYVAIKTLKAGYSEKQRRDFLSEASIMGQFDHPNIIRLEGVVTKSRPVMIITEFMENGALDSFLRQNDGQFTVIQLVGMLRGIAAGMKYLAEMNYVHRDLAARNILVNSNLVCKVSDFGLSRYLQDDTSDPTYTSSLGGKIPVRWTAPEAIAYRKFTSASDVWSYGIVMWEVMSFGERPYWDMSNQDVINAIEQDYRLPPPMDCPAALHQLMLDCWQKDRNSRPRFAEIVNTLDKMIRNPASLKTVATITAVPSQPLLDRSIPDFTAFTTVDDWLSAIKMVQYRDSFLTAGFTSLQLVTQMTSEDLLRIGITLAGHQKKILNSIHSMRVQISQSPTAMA

[7] = target: T1, human EphB2-His ectodomain - human EphrinB2-Fc ectodomain (EphB2-EphrinB2 tetramer); assay: biochemical; remark: listed apart in the source
Target sequence in this assay (P52799 28-229): as the sequence (P52799 28-229) above
Target sequence in this assay (P29323 19-543): as the sequence (P29323 19-543) above

[8] = target: T1, human EphB2-His ectodomain - human EphrinB2-Fc ectodomain (EphB2-EphrinB2 tetramer); assay: biochemical; remark: listed apart in the source
Target sequence in this assay (P52799 28-229): as the sequence (P52799 28-229) above
Target sequence in this assay (P29323 19-543): as the sequence (P29323 19-543) above

[9] = target: T1, human EphB2-His ectodomain - human EphrinB2-Fc ectodomain (EphB2-EphrinB2 tetramer); assay: biochemical; remark: listed apart in the source
Target sequence in this assay (P52799 28-229): as the sequence (P52799 28-229) above
Target sequence in this assay (P29323 19-543): as the sequence (P29323 19-543) above

[10] = target: T1, human EphB2-His ectodomain - human EphrinB2-Fc ectodomain (EphB2-EphrinB2 tetramer); assay: biochemical; remark: listed apart in the source
Target sequence in this assay (P52799 28-229): as the sequence (P52799 28-229) above
Target sequence in this assay (P29323 19-543): as the sequence (P29323 19-543) above

[11] = target: T1, human EphB2-His ectodomain - human EphrinB2-Fc ectodomain (EphB2-EphrinB2 tetramer); assay: biochemical; remark: listed apart in the source
[12] = target: T1, human EphB2-His ectodomain - human EphrinB2-Fc ectodomain (EphB2-EphrinB2 tetramer); assay: biochemical; remark: listed apart in the source
[13] = target: rat EphB1-Fc ectodomain - mouse EphrinB2-His ectodomain (EphB1-EphrinB2) (Rattus norvegicus; Mus musculus, UniProt P09759+P52800); assay: biochemical
Chain of rat EphB1-Fc ectodomain - mouse EphrinB2-His ectodomain (EphB1-EphrinB2) (P52800 29-232): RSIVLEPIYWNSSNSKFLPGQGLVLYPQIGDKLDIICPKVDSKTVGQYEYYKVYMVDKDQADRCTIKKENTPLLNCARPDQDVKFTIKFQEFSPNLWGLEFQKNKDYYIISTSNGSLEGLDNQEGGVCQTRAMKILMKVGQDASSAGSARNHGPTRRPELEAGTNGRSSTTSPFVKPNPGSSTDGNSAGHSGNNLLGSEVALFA
Chain of rat EphB1-Fc ectodomain - mouse EphrinB2-His ectodomain (EphB1-EphrinB2) (P09759 18-538): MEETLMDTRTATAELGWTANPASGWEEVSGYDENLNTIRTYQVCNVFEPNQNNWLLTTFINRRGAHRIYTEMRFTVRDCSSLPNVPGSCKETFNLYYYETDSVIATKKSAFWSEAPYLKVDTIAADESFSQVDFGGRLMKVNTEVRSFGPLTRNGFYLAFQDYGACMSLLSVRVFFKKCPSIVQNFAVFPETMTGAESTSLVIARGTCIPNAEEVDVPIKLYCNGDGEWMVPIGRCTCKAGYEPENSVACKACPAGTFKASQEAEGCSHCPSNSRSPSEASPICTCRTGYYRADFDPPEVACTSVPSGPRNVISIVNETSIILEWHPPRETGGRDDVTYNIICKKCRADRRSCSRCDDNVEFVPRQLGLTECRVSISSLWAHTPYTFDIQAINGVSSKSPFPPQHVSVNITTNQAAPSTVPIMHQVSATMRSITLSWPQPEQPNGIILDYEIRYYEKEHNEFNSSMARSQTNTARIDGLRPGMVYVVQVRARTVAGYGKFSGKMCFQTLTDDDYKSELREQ

[14] = target: T1, human EphB2-His ectodomain - human EphrinB2-Fc ectodomain (EphB2-EphrinB2 tetramer); assay: biochemical; settings: EphrinB2-EphB2 IC50 (Relative, µM)
[15] = target: T1, human EphB2-His ectodomain - human EphrinB2-Fc ectodomain (EphB2-EphrinB2 tetramer); assay: biolayer interferometry, AUC of concentration series; format: binding
Target sequence in this assay (P29323 19-543): as the sequence (P29323 19-543) above
Target sequence in this assay (P52799 28-229): as the sequence (P52799 28-229) above

[16] = target: T1, human EphB2-His ectodomain - human EphrinB2-Fc ectodomain (EphB2-EphrinB2 tetramer); assay: biochemical; remark: listed apart in the source
Target sequence in this assay (P29323 19-543): as the sequence (P29323 19-543) above
Target sequence in this assay (P52799 28-229): as the sequence (P52799 28-229) above

[17] = target: T1, human EphB2-His ectodomain - human EphrinB2-Fc ectodomain (EphB2-EphrinB2 tetramer); assay: biochemical; remark: listed apart in the source
[18] = target: T1, human EphB2-His ectodomain - human EphrinB2-Fc ectodomain (EphB2-EphrinB2 tetramer); assay: biochemical; remark: listed apart in the source
[19] = target: T1, human EphB2-His ectodomain - human EphrinB2-Fc ectodomain (EphB2-EphrinB2 tetramer); assay: biochemical; remark: listed apart in the source
[20] = target: T1, human EphB2-His ectodomain - human EphrinB2-Fc ectodomain (EphB2-EphrinB2 tetramer); assay: biochemical; remark: listed apart in the source

Structure (SMILES): O=C(O)CN(CCN(CC(=O)O)CC(=O)O)CC(=O)O [EDTA]
IC50 [2]: 1.1 µM

Structure (SMILES): Oc1c(I)cc(CN2CCOCC2)c2cccnc12 [A20-I]
inhibition at 3.2 µM (EphB1-EphrinB2): 36.6% | inhibition at 3.2 µM [3]: 61.8% | inhibition at 3.2 µM [4]: 13.9% | IC50 [5]: > 1.6 µM | inhibition at 3.2 µM [6]: 32.6%

Structure (SMILES): O=C(O)CN(CCOCCOCCN(CC(=O)O)CC(=O)O)CC(=O)O [compound 2, EGTA sodium salt]
IC50 [8]: > 3.2 µM | IC50 [9]: > 3.2 µM

Structure (SMILES): O=C(O)[C@@H](S)[C@@H](S)C(=O)O [compound 8, Succimer]
IC50 [10]: ~50 µM | IC50 [11]: ~50 µM

Structure (SMILES): O=C(Oc1c(Cl)cc(Cl)c2cccnc12)c1ccc([N+](=O)[O-])cc1 [4a, 5,7-dichloro-8-quinolinyl 4-nitrobenzoate]
IC50 [17]: 38 µM | IC50 [18]: ~31.6 µM

Structure (SMILES): O=S1(=O)CCN(Cc2ccc(O)c3ncccc23)CC1 [QTM . 2 HCl, 4-((8-hydroxyquinolin-1-ium-5-yl)methyl)thiomorpholin-4-ium 1,1-dioxide chloride]
IC50 [13]: > 100 µM | IC50 [5]: > 1.6 µM | IC50 [14]: 0.81 µM

Structure (SMILES): O=C(Oc1cccc2cccnc12)c1ccc(F)cc1 [compound 2, 8-quinolinyl 4-fluorobenzoate]
IC50 [17]: > 100 µM | IC50 [19]: 100 µM

Structure (SMILES): Oc1ccc(Cl)c2cccnc12 [compound 3, Cloxiquine]
IC50 [20]: ~3.2 µM | IC50 [8]: > 3.2 µM

Continued, values first:

IC50 [1]: > 3.2 µM
Structure (SMILES): Cc1ccnc(NC(c2cccc([N+](=O)[O-])c2)c2ccc3cccnc3c2O)c1 (stereo not drawn) [SW039339]

Ki [7]: 0.00373 µM
Structure (SMILES): Oc1ccc(CSc2ccccc2)c2cccnc12 [SW160569, G15]

IC50 [1]: > 3.2 µM | IC50 [12]: > 3.2 µM
Structure (SMILES): CCOc1cc(C(Nc2cc(C)ccn2)c2ccc3cccnc3c2O)ccc1O (stereo not drawn) [SW039498]

IC50 [13]: > 100 µM | IC50 [5]: > 1.6 µM | IC50 [14]: > 1.6 µM
Structure (SMILES): Oc1ccc(CN2CCOCC2)c2cccnc12 [A19, 5-(morpholinomethyl)quinolin-8-ol]

IC50 [2]: 1.6 µM | Ki [15]: 0.00288 µM | IC50 [16]: 0.28 µM | inhibition at 3.2 µM [6]: 39.1%
Structure (SMILES): Oc1c(Br)cc(CN2CCN(c3ccc(Br)cc3)CC2)c2cccnc12 [BQPB4]
